This is an account of results in patent US20160075689A1, “POLYMERASE, ENDONUCLEASE, AND HELICASE INHIBITORS AND METHODS OF USING THEREOF” (THE BOARD OF TRUSTEES OF THE UNIVERSITY OF ARKANSAS, priority 2013, published 2016).

The target of test [1] is T1, hpol β (Homo sapiens, UniProt P06746).
T1 construct: purchased Enzymax (Lexington, Ky.)
The test can be described thus: Fluorescence-based polymerase assay, IC50. The class given is biochemical. On the procedure:
(§1) In order to determine the IC50 value for each enzyme, the fluorescence-based polymerase assay was repeated with increasing concentrations of inhibitor. The conditions varied slightly for each enzyme. With the exception of hpol ι, all IC50 experiments were performed in 50 mM Tris HCl (pH 8.0) buffer containing 1 mM MgCl2, 0.1 mM dTTP, 40 mM NaCl, 2 mM DTT, 0.01% (v/v) Tween-20 and 10% (v/v) DMSO. For experiments with hpol ι, KCl was substituted for NaCl and 0.25 mM MnCl2 was substituted for MgCl2. The concentration of inhibitor was 0, 1, 5, 10, 20, 30, 50, 75 and 100 μM. The enzyme and DNA concentrations were as follows: 10 nM hpol η, 50 nM DNA; 3 nM hpol κ, 60 nM DNA; 50 nM hpol ι, 50 nM DNA; 10 nM Dpo4, 50 nM DNA; 100 nM Dpo1, 50 nM DNA; 50 nM hpol β, 50 nM DNA; 50 nM HIV-1 RT, 50 nM DNA. The percent activity was plotted as a function of the log of inhibitor concentration and fit to a four-parameter logistic model (equation 1) using Prism software (Graph Pad, San Diego, Calif.): […]

In test [2] the target is T2, Dpo1 (Saccharolobus solfataricus, UniProt P26811).
T2 construct: made in house
Put plainly: Fluorescence-based polymerase assay, IC50. The class given is biochemical, Sulfolobus solfataricus. On the procedure:
as §1

Test [3] deals with T3, hpol η (Homo sapiens, UniProt Q9Y253).
T3 construct: human DNA polymerases η (amino acids 1-437); 6x-histidine (N, cleaved yes); GST (N, cleaved yes); made in house; host or cells: Escherichia coli BL21 (DE3)
T3 sequence (Q9Y253 1-437): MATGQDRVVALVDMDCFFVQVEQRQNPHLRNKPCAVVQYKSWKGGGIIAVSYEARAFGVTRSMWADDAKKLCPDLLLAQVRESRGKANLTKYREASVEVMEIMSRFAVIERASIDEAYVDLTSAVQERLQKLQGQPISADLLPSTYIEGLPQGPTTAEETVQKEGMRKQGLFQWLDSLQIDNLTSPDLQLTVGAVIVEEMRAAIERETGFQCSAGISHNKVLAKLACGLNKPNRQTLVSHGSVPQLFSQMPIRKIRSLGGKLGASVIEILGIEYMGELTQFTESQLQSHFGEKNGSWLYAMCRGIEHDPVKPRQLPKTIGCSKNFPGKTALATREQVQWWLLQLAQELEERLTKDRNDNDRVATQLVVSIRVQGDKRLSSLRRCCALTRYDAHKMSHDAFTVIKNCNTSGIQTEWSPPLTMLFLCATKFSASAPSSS
The test can be described thus: Steady-state kinetic analysis of DNA polymerase activity. The test is classed as biochemical. The settings on record: for kcat: varying dTTP. On the procedure: The steady-state kinetic parameters defining polymerase activity in the presence of inhibitor were determined using the fluorescence-based reporter assay. Hpol q activity was monitored in the presence of increasing concentrations of dTTP (1, 5, 10, 20, 30, 50, 75, and 100 μM). The measured relative fluorescence units (RFUs) were converted to a nanomolar quantity by calculating the total change in fluorescence observed between the start of the reaction and the time point at which the fluorescence change was maximal, and considering that change to be 100% of substrate converted to product. The percentage of substrate converted to product was multiplied by the concentration of dsDNA in the reaction mixture. Product formation was then plotted as a function of time, and by considering only the linear portion of each curve, velocities were calculated for each dTTP concentration. These were then plotted as a function of dTTP concentration, and fit to a hyperbola. After correcting for enzyme concentration, the steady-state kinetic parameters were obtained as described previously. The experiments were then repeated in the presence of inhibitor (10, 20 and 40 μM) to determine the effect of the small-molecule upon Michaelis-Menten kinetics.
Next, the mechanism of polymerase inhibition by ITBA-3 was investigated. The Michaelis-Menten kinetic parameters describing hpol η activity were measured in the presence of increasing concentrations of inhibitor. By varying the concentration of dTTP in the reaction mixture, the turnover number (kcat) and Michaelis constant (Km,dTTP) for hpol η were determined in the absence of inhibitor and at three concentrations of ITBA-3 (Table 3).

In test [4] the target is T3, hpol η. Put plainly: Gel-based polymerase extension assay. The test is classed as biochemical. The note with it: 6 μM, 13 μM and 60 μM. On the procedure:
In order to provide a second measure of enzyme inhibition, polymerase extension assays were performed. Briefly, hpol η (2 nM) was pre-incubated with FAM-13/18-mer primer-template DNA ([…]) and either DMSO (final concentration=10%) or compound (6 μM, 13 μM and 60 μM; maintaining 10% DMSO for all experiments). Polymerase catalysis was initiated by the addition of dNTP (1 mM) and MgCl2 (5 mM). The reaction was allowed to proceed at 37° C. for varying times and then terminated by the addition of 5 μL aliquots of the reaction mix to 25 μL of the quench solution (20 mM EDTA, 95% (v/v) formamide and 0.1% (w/v) bromophenol blue). The samples were separated using a 16% polyacrylamide/7M urea gel and the products analyzed using a Typhoon imager and ImageQuant™ software (GE Healthcare Life Sciences).

In test [5] the target is T3, hpol η. The test can be described thus: Fluorescence-based DNA polymerase strand-displacement assay. The class given is biochemical.
Description: A library of 320 compounds targeted against nucleic acid interacting proteins was screened for inhibition of polymerase activity using an assay that monitors fluorescence from a 5-carboxytetramethylrhodamine (TAMRA) labeled oligonucleotide. In order to prepare the DNA for the experiment, a TAMRA-labeled reporter (or displaced) strand (SEQ ID NO. 4: 5′-TTT TTT TTG C-TAMRA-3′) and unlabeled primer strand (SEQ ID NO. 5: 5′-TCA CCC TCGTAC GAC TCT T-3′) were annealed to a Black Hole Quencher (BHQ)-labeled template strand (SEQ ID NO. 6: 5′BHQ2-GCAAAAAAAAAA GAG TCG TAC GAG GGT GA-3′) in a solution containing 10 mM Tris (pH 8.0), 50 mM NaCl, 2 mM MgCl2, and dH2O. The template (T), primer (P) and displaced strand (D) oligonucleotides were mixed in a 1:1.5:1.5 (T:P:D) molar ratio for annealing. After an incubation period of three minutes at 95° C., the DNA was allowed to slowly cool to room temperature overnight.
The fluorescence-based assay used to screen for polymerase inhibitors measures polymerase-catalyzed displacement of a TAMRA-labeled oligonucleotide (FIG. 1). For the initial screen, the experimental setup included 50 nM hpol η), 50 nM DNA, 6 μM compound, 100 μM dTTP and 1 mM MgCl2. The reactions were performed in 50 mM Tris (pH 8.0) buffer containing 40 mM NaCl, 2 mM dithiothreitol, and 0.01% (v/v) Tween-20. The concentration of dimethyl sulfoxide (DMSO) was 3.5% (v/v) for the initial screen. The enzyme, the compounds (including a DMSO control) and dTTP were combined with the reaction buffer in individual wells of each half-plate and allowed to incubate for 5-10 minutes. The DNA substrate was subsequently added to initiate the reaction and the plate was read immediately using a BioTek SynergyH4 plate reader (λex=525 nm, λem=598 run). The final reaction volume was 200 μL. Fluorescence was monitored for 90 minutes for most reactions. The initial portion of the velocity curve was analyzed by linear regression to calculate an observed rate of product formation. For each data set, eight DMSO control experiments were averaged to obtain our measure of 100% activity. Rates of product formation in the presence of each compound were then divided by the rate of the DMSO control to produce a relative measure of polymerase activity (0 to 1, with 1 being no inhibition).
as §1

T2 sequence (P26811 whole entry): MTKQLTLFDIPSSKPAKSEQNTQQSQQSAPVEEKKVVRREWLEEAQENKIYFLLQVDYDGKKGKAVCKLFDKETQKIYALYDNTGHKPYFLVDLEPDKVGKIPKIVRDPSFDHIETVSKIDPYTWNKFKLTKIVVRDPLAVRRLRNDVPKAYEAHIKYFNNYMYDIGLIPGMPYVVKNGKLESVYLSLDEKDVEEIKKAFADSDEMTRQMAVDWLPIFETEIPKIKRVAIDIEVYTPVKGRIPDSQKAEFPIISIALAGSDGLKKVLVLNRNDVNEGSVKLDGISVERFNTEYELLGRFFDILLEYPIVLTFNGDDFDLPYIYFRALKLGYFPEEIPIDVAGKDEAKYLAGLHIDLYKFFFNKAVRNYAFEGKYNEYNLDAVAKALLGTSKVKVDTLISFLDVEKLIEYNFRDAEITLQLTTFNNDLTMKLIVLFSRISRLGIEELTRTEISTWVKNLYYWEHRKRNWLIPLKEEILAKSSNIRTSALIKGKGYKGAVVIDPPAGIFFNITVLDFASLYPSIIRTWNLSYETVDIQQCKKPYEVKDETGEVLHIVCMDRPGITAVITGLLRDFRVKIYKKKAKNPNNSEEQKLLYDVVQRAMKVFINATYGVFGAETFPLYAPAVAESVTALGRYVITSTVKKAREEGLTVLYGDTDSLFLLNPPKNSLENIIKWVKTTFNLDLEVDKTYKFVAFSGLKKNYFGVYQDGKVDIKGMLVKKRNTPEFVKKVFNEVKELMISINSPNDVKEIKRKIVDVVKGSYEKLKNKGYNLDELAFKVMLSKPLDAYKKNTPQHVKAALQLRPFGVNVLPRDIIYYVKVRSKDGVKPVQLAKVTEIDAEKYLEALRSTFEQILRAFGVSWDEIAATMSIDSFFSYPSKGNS

Broadly, the IC50 is the concentration needed to halve the response being measured. A word on the kcat: it is the number of substrate molecules converted per active site and unit of time at saturation. As for `O=C1NC(=S)NC(=O)C1=Cc1cn(C(=O)c2ccccc2Br)c2ccc(Cl)cc12` [ITBA-3, 5-((1-(2-bromobenzoyl)-5-chloro-1H-indol-3-yl)methylene)-2-thioxodihydropyimidine-4,6-(1H,5H)-dione], the IC50 in test [1] was less than 50 µM; in test [2] it was approximately 80 µM; in test [5] (10 nM hpol η, 50 nM DNA, mean ± standard deviation of three data sets, read-out: IC50 for inhibition of hpol η), 29.8 ± 2.7 µM. Moreover, the kcat was determined as 0.04 ± 0.0017 s⁻¹ in test [3] (10 μM inhibitor), 0.05 ± 0.005 s⁻¹ in test [3] (20 μM inhibitor) and 0.0517 ± 0.0033 s⁻¹ in test [3] (40 μM inhibitor). Also, in test [3] (with respect to dTTP), the mode of inhibition result is “competitive”. Besides, the “polymerase activity at increasing concentrations of inhibitor, gel-based analysis” value in test [4] is “dose-dependent decrease in polymerase activity”. Further, in test [5] (6 μM, 13 μM and 20 μM), the “polymerase activity at increasing concentrations of inhibitor, fluorescence assay” value is “dose-dependent decrease in polymerase activity”. For the same compound, in test [5] (50 μM compound), the “hpol η percent activity relative to the control assay” value is reported as “dramatic improvement in activity”.
